Test results reported in patent US7378397B2 (The Provost, Fellows and Scholars of the College of the …, priority 2000, dated 2008).
Entries after “also recorded” stand apart in the source; their conditions may differ. Where a SMILES comes first, the peptide text is derived from it. [ ]: non-standard residue; d: D form. The star is where a group is joined. hPhe = N[C@@H](CCc1ccccc1)C(=O)O; AMC = Cc1cc(=O)oc2cc(N*)ccc12; pGlu = O=C1CC[C@@H](C(=O)O)N1; NHBn = c1ccc(CN*)cc1

Columns and labels:
TRH-DE [1] = target: T1, TRH-DE (Sus scrofa, UniProt A0A287AP33); assay: continuous coupled fluorometric TRH-DE assay (TRHAMC substrate, DPP-IV coupling enzyme); type: biochemical, porcine; settings: for inhibition at 1000 µM: peptide 1 mM, 5 μM TRHAMC substrate
T1 construct: The inventor purified TRH-DE from porcine brain according to purification procedures previously published by Dr. K. Bauer; from tissue; host or cells: porcine brain (TRH-DE); bovine kidney (DPP-IV, gift from Dr. C. H. Williams)
Method: (§1) The inventor purified TRH-DE from porcine brain according to purification procedures previously published by Dr. K. Bauer, (Max-Planck-Institut, Hannover, Germany) (1). TRH-DE was purified almost 20,000 fold. […] Dipeptidyl peptidase IV (DPP-IV) (EC 3.4.14.5), purified from bovine kidney (7.7 mg ml^−1, specific activity of 17.5 U mg^−1 with Gly-ProAMC as substrate), was obtained as a gilt from Dr. C. H. Williams (Queen's University Belfast, U.K). (DPP-IV was used as the coupling enzyme used in the fluorometric assays).
(§2) One unit (U) of enzyme activity was defined as that amount catalysing the formation of one μmol of product in one minute under the standard conditions employed. All incubations in the assays described below were carried out in 20 mM potassium phosphate buffer, pH 7.5, at 37° C.
Kinetic analysis of peptides that are not hydrolysed by TRH-DE. A recently-developed continuous coupled fluorometric assay (23) was used to investigate the ability of those library peptides that were not hydrolysed by TRH-DE to inhibit TRHAMC degradation by TRH-DE. In this assay, TRHAMC is the substrate and dipeptidyl peptidase IV (DPP-IV) (EC 3.4.14.5) is the coupling enzyme. The reaction sequence is:
The reaction was monitored continuously by measuring the increase in AMC fluorescence. A linear progress curve with no discernible lag period was observed when the reaction was monitored over a period of 10 minutes. Nevertheless, data sampling was not commenced until 100 s from the start of the reaction to ensure measurements were taken after a steady state had been reached (see Ref. 23).
In a preliminary experiment, the peptides were screened for their ability to inhibit TRH-DE activity. The initial rate of TRHAMC hydrolysis by TRH-DE was measured by incubating 5 μM TRHAMC with 1.23 μg DPP-IV and 0.32 μg TRH-DE, both in the absence and presence of each library peptide (1 mM final concentration) under standard assay conditions (23). In each case the percentage inhibition (i%) was calculated using the equation i%=100(1-vi/vo), where vi and vo are the initial velocities in the presence and absence of peptide, respectively.
Since these peptides were poor inhibitors they were not examined further. The Ki values for the remainder of the peptides were determined by measuring their effects on TRHAMC degradation by TRH-DE using the continuous assay. Data were collected in duplicate at five different substrate concentrations and at least three different concentrations of each peptide.
Reversibility and time dependence of the inhibition produced by Glp-Gln-ProNH2, Glp-Asn-ProNH2 and Glp-Asn-ProAMC were examined by initially preincubating TRH-DE with each peptide at 37° C. for various periods up to 75 min. To investigate time dependence, the enzyme-peptide solution was subsequently added to the reaction mixture containing TRHAMC, DPP-IV, buffer and peptide, and TRH-DE activity was measured using the continuous assay. The final concentration of Glp-Gln-ProNH2, Glp-Asn-ProNH2 and Glp-Asn-ProAMC used was 400, 160 and 1 μM, respectively. […] TRH-DE activity was not affected by pre-incubation at 37° C.
Fluorescence measurements were made using a Perkin Elmer LS 50B Luminescence Spectrometer fitted with a thernostated cell holder. Wavelengths for excitation and emission were set at 370 nm and 440 nm, respectively, with slit widths of 10 nm and 5 nm, respectively.

TRH-DE [2] = target: T1, TRH-DE; assay: HPLC assay of peptide hydrolysis by TRH-DE (Glp production); type: biochemical, porcine; settings: for hydrolysis by TRH-DE (release of Glp): 1 mM peptide incubated with TRH-DE 18 h at 37° C., HPLC; for Rate of hydrolysis: peptide 1 mM, 37° C., Glp production by HPLC, mean±S.D.
Method: as §1, §2
Kinetic analysis of the peptide library using HPLC—The ability of each peptide in the library to act as a TRH-DE substrate was assessed using HPLC. As an initial screen, 1 mM peptide was incubated with 0.8 μg TRH-DE in a total volume of 1 ml for 18 h at 37° C. Control samples were included in which peptide (1 mM) or Glp (0.2 mM-0.8 mM) were incubated under identical conditions in the absence of TRH-DE. TRH-DE activity was terminated by the addition of TFA (0.15% v/v) and samples were then analysed using HPLC as described previously (24). Products resulting from TRH-DE hydrolysis could be separated on a C-18 reverse-phase column (Hypersil, UK) using a linear gradient of 0-70% acetonitrile in 0.08% (v/v) TFA. The concentration of Glp formed by the action of TRH-DE on the peptide library was measured by UV absorbance at 206 nm with a quantitative detection limit of 0.1 mM for a 40 μl injection volume, employing a signal to noise ratio of 10. Following the incubation of each peptide with TRH-DE, evidence of Glp in the sample was taken to indicate that the peptide was a TRH-DE substrate.
The rates of hydrolysis for each of those peptides identified as substrates were then compared by measuring Gip production using microassays with shorter incubation times. In these assays peptide (1 mM) was incubated at 37° C. in a total volume of 100 μl. 0.8-3.2 μg TRH-DE and incubations times of 5 min to 18 h were used routinely. Measurements were made in triplicate. The rate of TRH-OH hydrolysis was also measured by this method.

[3] = calculated from percent inhibition measured in duplicate at 5 μM substrate
[4] = from the percent inhibition (n = 3) in the presence of 5 μM substrate
[5] = non-linear regression, five TRHAMC concentrations and at least three peptide concentrations, mean±S.D. (n=3)
[6] = estimated from <20% inhibition at 1 mM peptide with the competitive inhibition relationship

T1 sequence (A0A287AP33 1-1066): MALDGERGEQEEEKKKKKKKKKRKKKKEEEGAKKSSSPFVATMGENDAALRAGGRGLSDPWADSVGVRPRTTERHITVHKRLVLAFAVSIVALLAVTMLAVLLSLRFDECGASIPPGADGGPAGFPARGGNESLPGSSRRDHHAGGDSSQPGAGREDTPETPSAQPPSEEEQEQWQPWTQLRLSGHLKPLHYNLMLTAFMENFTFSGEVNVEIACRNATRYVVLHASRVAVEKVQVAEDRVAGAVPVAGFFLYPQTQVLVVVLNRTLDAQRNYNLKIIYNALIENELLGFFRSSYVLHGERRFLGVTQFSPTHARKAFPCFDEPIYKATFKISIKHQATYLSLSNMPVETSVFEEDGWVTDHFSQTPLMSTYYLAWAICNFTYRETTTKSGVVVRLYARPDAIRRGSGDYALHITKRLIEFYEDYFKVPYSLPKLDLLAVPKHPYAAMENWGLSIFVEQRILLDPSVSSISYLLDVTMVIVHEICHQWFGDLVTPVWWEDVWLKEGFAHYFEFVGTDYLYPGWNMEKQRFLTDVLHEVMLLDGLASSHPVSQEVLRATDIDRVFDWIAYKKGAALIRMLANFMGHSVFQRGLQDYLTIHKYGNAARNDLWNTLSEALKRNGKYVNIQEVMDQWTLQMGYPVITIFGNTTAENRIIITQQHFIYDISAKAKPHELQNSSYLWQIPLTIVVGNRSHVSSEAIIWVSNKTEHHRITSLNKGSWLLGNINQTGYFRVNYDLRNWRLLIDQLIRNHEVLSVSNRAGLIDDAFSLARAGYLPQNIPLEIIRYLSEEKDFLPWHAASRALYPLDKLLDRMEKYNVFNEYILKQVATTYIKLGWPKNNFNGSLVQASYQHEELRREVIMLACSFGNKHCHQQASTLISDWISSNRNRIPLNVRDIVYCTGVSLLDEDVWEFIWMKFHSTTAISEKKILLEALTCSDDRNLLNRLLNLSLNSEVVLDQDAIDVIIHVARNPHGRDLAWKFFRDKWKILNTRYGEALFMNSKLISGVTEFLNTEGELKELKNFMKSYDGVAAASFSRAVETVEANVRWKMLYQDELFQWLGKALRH

NC(=O)C[C@H](NC(=O)[C@@H]1CCC(=O)N1)C(=O)N1CCC[C@H]1C(=O)Nc1ccccc1O
Ki (TRH-DE [1]; [3]): 6.62 µM

NC(=O)C[C@H](NC(=O)[C@@H]1CCC(=O)N1)C(=O)N1CCC[C@H]1C(=O)Nc1cccc2c1CCCC2
Ki (TRH-DE [1]; [3]): 9.31 µM

NC(=O)C[C@H](NC(=O)[C@@H]1CCC(=O)N1)C(=O)N1CCC[C@H]1C(=O)NC1CCCc2ccccc21 (single isomer, unassigned)
Ki (TRH-DE [1]; [3]): 63.2 µM

NC(=O)C[C@H](NC(=O)[C@@H]1CCC(=O)N1)C(=O)N1CCC[C@H]1C(=O)NC1CCCc2ccccc21 (single isomer, unassigned) [1,2,3,4-tetrahydro-1-naphthylamide isomer 2]
Ki (TRH-DE [1]; [3]): 22.4 µM

COc1ccc(Cl)cc1NC(=O)[C@@H]1CCCN1C(=O)[C@H](CC(N)=O)NC(=O)[C@@H]1CCC(=O)N1 [5-chloro-2-methoxy anilide]
Ki (TRH-DE [1]; [3]): 9.95 µM

NC(=O)C[C@H](NC(=O)[C@@H]1CCC(=O)N1)C(=O)N1CCC[C@H]1C(=O)NCc1ccccc1 [Benzylamide] ([pGlu]-Asn-Pro-NHBn)
Ki (TRH-DE [1]; [3]): 11.9 µM

Cc1cc(=O)oc2cc(NC(=O)[C@H](Cc3c[nH]c4ccccc34)NC(=O)[C@@H]3CCCN3C(=O)[C@H](CC(N)=O)NC(=O)[C@@H]3CCC(=O)N3)ccc12 [Glp-Asn-Pro-Trp-AMC] ([pGlu]NPW-{AMC})
Ki (TRH-DE [1]; [4]): 0.08 µM

NC(=O)C[C@H](NC(=O)[C@@H]1CCC(=O)N1)C(=O)N1CCC[C@H]1C(=O)N[C@@H](Cc1c[nH]c2ccccc12)C(N)=O [Glp-Asn-Pro-Trp-NH2] ([pGlu]NPW-NH2)
Ki (TRH-DE [1]; [4]): 5.17 µM

NC(=O)C[C@H](NC(=O)[C@@H]1CCC(=O)N1)C(=O)N1CCC[C@H]1C(=O)N[C@@H](Cc1c[nH]c2ccccc12)C(=O)N[C@@H](CO)C(=O)N[C@@H](Cc1ccc(O)cc1)C(N)=O [Glp-Asn-Pro-Trp-Ser-Tyr-NH2] ([pGlu]NPWSY-NH2)
Ki (TRH-DE [1]; [4]): 8.11 µM

NC(=O)C[C@H](NC(=O)[C@@H]1CCC(=O)N1)C(=O)N1CCC[C@H]1C(=O)N[C@@H](Cc1c[nH]c2ccccc12)C(=O)N[C@@H](Cc1ccc(O)cc1)C(N)=O [Glp-Asn-Pro-Trp-Tyr-NH2] ([pGlu]NPWY-NH2)
Ki (TRH-DE [1]; [4]): 5.91 µM

NC(=O)C[C@H](NC(=O)[C@@H]1CCC(=O)N1)C(=O)N1CCC[C@H]1C(=O)N[C@@H](Cc1ccc(O)cc1)C(N)=O [Glp-Asn-Pro-Tyr-NH2] ([pGlu]NPY-NH2)
Ki (TRH-DE [1]; [4]): 10.3 µM

Cc1cc(=O)oc2cc(NC(=O)[C@H](Cc3c[nH]c4ccccc34)NC(=O)[C@H](Cc3ccc(O)cc3)NC(=O)[C@@H]3CCCN3C(=O)[C@H](CC(N)=O)NC(=O)[C@@H]3CCC(=O)N3)ccc12 [Glp-Asn-Pro-Tyr-Trp-AMC] ([pGlu]NPYW-{AMC})
Ki (TRH-DE [1]; [5]): 0.04 µM

NC(=O)C[C@H](NC(=O)[C@@H]1CCC(=O)N1)C(=O)N1CCC[C@H]1C(=O)N[C@@H](Cc1ccc(O)cc1)C(=O)N[C@@H](Cc1c[nH]c2ccccc12)C(N)=O [Glp-Asn-Pro-Tyr-Trp-NH2] ([pGlu]NPYW-NH2)
Ki (TRH-DE [1]; [4]): 0.78 µM

NC(=O)[C@@H]1CCCN1C(=O)[C@H](CC(=O)O)NC(=O)[C@@H]1CCC(=O)N1 [Glp-Asp-ProNH2] ([pGlu]-Asp-Pro-NH2)
hydrolysis by TRH-DE (release of Glp) (TRH-DE [2]): No detectable Glp
Ki (TRH-DE [1]; [6]): > 1000 µM
inhibition at 1000 µM (TRH-DE [1]): 1%

NC(=O)C[C@@H](NC(=O)[C@@H]1CCC(=O)N1)C(=O)N1CCC[C@H]1C(N)=O [Glp-D-Asn-ProNH2] ([pGlu]-[dN]-Pro-NH2)
hydrolysis by TRH-DE (release of Glp) (TRH-DE [2]): No detectable Glp
Ki (TRH-DE [1]; [6]): > 1000 µM
inhibition at 1000 µM (TRH-DE [1]): 2%

NC(=O)CC[C@H](NC(=O)[C@@H]1CCC(=O)N1)C(=O)N1CCC[C@H]1C(N)=O [Glp-Gln-ProNH2] ([pGlu]-Gln-Pro-NH2)
hydrolysis by TRH-DE (release of Glp) (TRH-DE [2]): not hydrolyzed at all; also recorded: No detectable Glp
Ki (TRH-DE [1]; [5]): 69 ± 4.4 µM
inhibition at 1000 µM (TRH-DE [1]): 83%
reversibility and time dependence of inhibition (TRH-DE [1]; preincubation with TRH-DE up to 75 min at 37° C., Glp-Gln-ProNH2 400, Glp-Asn-ProNH2 160, Glp-Asn-ProAMC 1 μM): fully reversible and not time-dependent

NC(=O)[C@@H]1CCCN1C(=O)CNC(=O)[C@@H]1CCC(=O)N1 [Glp-Gly-ProNH2] ([pGlu]-Gly-Pro-NH2)
hydrolysis by TRH-DE (release of Glp) (TRH-DE [2]): No detectable Glp
Ki (TRH-DE [1]; [6]): > 1000 µM
inhibition at 1000 µM (TRH-DE [1]): 8%

NC(=O)[C@@H]1CCCN1C(=O)[C@H](Cc1ccc(O)cc1)NC(=O)[C@@H]1CCC(=O)N1 [Glp-Tyr-ProNH2] ([pGlu]-Tyr-Pro-NH2)
Rate of hydrolysis (TRH-DE [2]): 0.66 ± 0.04 (5) U mg^−1

COc1cccc(NC(=O)[C@@H]2CCCN2C(=O)[C@H](CC(N)=O)NC(=O)[C@@H]2CCC(=O)N2)c1 [m-anisidide]
Ki (TRH-DE [1]; [3]): 0.86 µM

COc1ccccc1NC(=O)[C@@H]1CCCN1C(=O)[C@H](CC(N)=O)NC(=O)[C@@H]1CCC(=O)N1 [o-anisidide]
Ki (TRH-DE [1]; [3]): 11.6 µM

COc1ccc(NC(=O)[C@@H]2CCCN2C(=O)[C@H](CC(N)=O)NC(=O)[C@@H]2CCC(=O)N2)cc1 [p-anisidide]
Ki (TRH-DE [1]; [3]): 3.24 µM

Glp-Ileu-ProNH2
Rate of hydrolysis (TRH-DE [2]): 0.06 ± 0.00 (4) U mg^−1

Glp-NorVal-ProNH2
Rate of hydrolysis (TRH-DE [2]): 0.04 ± 0.00 (6) U mg^−1

[pGlu]-Ala-Pro-NH2
hydrolysis by TRH-DE (release of Glp) (TRH-DE [2]): not completely degraded; also recorded: only partially degraded
Glp produced (TRH-DE [2]; 1 mM peptide, overnight incubation with TRH-DE): 0.2 mM
Rate of hydrolysis (TRH-DE [2]): 0.02 ± 0.00 (3) U mg^−1

[pGlu]-Arg-Pro-NH2
Rate of hydrolysis (TRH-DE [2]): 0.41 ± 0.02 (4) U mg^−1

[pGlu]-Cys-Pro-NH2
hydrolysis by TRH-DE (release of Glp) (TRH-DE [2]): no detectable cleavage

[pGlu]-Leu-Pro-NH2
Rate of hydrolysis (TRH-DE [2]): 0.14 ± 0.01 (5) U mg^−1

[pGlu]-Lys-Pro-NH2
Rate of hydrolysis (TRH-DE [2]): 0.46 ± 0.02 (3) U mg^−1

[pGlu]-Met-Pro-NH2
Rate of hydrolysis (TRH-DE [2]): 0.21 ± 0.03 (4) U mg^−1

[pGlu]-Ser-Pro-NH2
Rate of hydrolysis (TRH-DE [2]): 0.05 ± 0.00 (3) U mg^−1

[pGlu]-Thr-Pro-NH2
Rate of hydrolysis (TRH-DE [2]): 0.14 ± 0.01 (5) U mg^−1

[pGlu]-Val-Pro-NH2
Rate of hydrolysis (TRH-DE [2]): 0.05 ± 0.00 (3) U mg^−1

[pGlu]-[hPhe]-Pro-NH2
Rate of hydrolysis (TRH-DE [2]): 0.05 ± 0.00 (3) U mg^−1
